Holding throughout (assay): inhibition of tumour cell growth, NCI panel, 48 h
Assay [1] deals with BT-549.
In assay [2] the test system is EKVX.
Assay [3] has as its system HCT-116.
Assay [4] deals with HCT-15.
In assay [5] the test system is M14.
Assay [6] relates to MOLT-4.
The test system of assay [7] is Malme-3M.
Assay [8] concerns NCI-H226.
Assay [9] deals with NCI-H23.
In assay [10] the test system is NCI/ADR-RES.
For assay [11], the system named is SF-268.
Assay [12] relates to SF-539.
For assay [13], the system named is SK-MEL-28.
For assay [14], the system named is SK-MEL-5.
Assay [15] deals with SNB-75.
Assay [16] concerns SR.
Assay [17] deals with T47D.
Assay [18] has as its system U-251.
Assay [19] concerns UACC-62.

Molecules are shown by their SMILES.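 Values below derive from 48-hour exposures of cells grown in 96-well plates, with endpoints linearly interpolated between the two concentrations bracketing the appropriate inhibition level. Here, GI50 denotes the concentration required for 50% inhibition of growth.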 Calls of active or inactive are those of the source. Cut-off read from the data, not from the text of the source: active = GI50 up to about 1.1 µM and inactive = higher.

Consider `N#C/C(=C\c1ccc([N+](=O)[O-])o1)c1n[nH]c(Cc2ccccc2)n1`, for which the GI50 is 2.53 µM (inactive) in [1]; 2.72 µM (inactive) in assay [2]; 0.232 µM (active) in assay [3]; 0.281 µM in assay [4]; 1.63 µM (inactive) in [5]; 0.406 µM (active) in assay [6]. Besides, the GI50 was 1.94 µM (inactive) in assay [7]; 1.65 µM (inactive) in [8]; 1.21 µM (inactive) in [9]; 2.79 µM (inactive) in assay [10]; 0.641 µM (active) in assay [11]; 1.32 µM (inactive) in assay [12]. In addition, the GI50 in assay [13] is 2.03 µM (inactive); in assay [14] it was 1.05 µM (active); in assay [15], 2.52 µM (inactive); in assay [16], 0.173 µM (active); in assay [17], 2 µM (inactive); in assay [18], 2.81 µM (inactive). In addition, the GI50 in assay [19] is 1.52 µM (inactive).

As for `O=[N+]([O-])c1cc2[nH]nnc2c2nonc12`, the GI50 is 11.1 µM (inactive) in [1]; 65.8 µM (inactive) in assay [2]; 20.5 µM (inactive) in [3]; 29.2 µM in assay [4]; 22.4 µM (inactive) in assay [5]; 6.18 µM (inactive) in assay [6]. The GI50 was 35.2 µM (inactive) in [7]; 19.3 µM (inactive) in assay [8]; 26.5 µM (inactive) in [9]; 48.3 µM (inactive) in assay [10]; 59 µM (inactive) in assay [11]; 22.8 µM (inactive) in assay [12]. Further, the GI50 was 38.5 µM (inactive) in [13]; 11.9 µM (inactive) in [14]; 38.5 µM (inactive) in assay [15]; 6.08 µM (inactive) in assay [16]; > 100 µM (inactive) in [17]; 28.4 µM (inactive) in [18]. The GI50 in [19] was > 10 µM (inactive).

`CC1(C)CCC2(C(=O)OC3OC(CO)C(O)C(O)C3O)CCC3(CO)C(=CCC4C5(C)CC(O)C(O)C(C)(C(=O)OC6OC(CO)C(O)C(O)C6O)C5CCC43C)C2C1` (stereo not drawn): the GI50 in assay [1] was > 100 µM (inactive); in [2] it was > 100 µM (inactive); in assay [3], > 100 µM (inactive); in assay [4] it was more than 100 µM; in [5] it was > 100 µM (inactive); in assay [6] it was > 100 µM (inactive). Besides, the GI50 in assay [7], in assay [8], in assay [9], in [10], in [11] and in assay [12] was > 100 µM (inactive) throughout. For the same molecule, the GI50 in assay [13] is > 100 µM (inactive); in [14], > 100 µM (inactive); in assay [15], > 100 µM (inactive); in [16] it was 44.8 µM (inactive); in assay [17], > 100 µM (inactive); in assay [18], > 100 µM (inactive). Further, the GI50 in [19] was > 100 µM (inactive).

On to `COC(=O)C1=C(C)NC(C)=C(C(=O)OC)C1c1cccc(/[N+]([O-])=C/c2ccccc2)c1`, for which the GI50 in assay [1] was 16.3 µM (inactive); in assay [2], 72.8 µM (inactive); in assay [3], 16.7 µM (inactive); in assay [4], 17.1 µM; in [5], 18.6 µM (inactive); in assay [6], 23.2 µM (inactive). Besides, the GI50 in [7] is 16.3 µM (inactive); in assay [8], > 100 µM (inactive); in assay [9], 33.3 µM (inactive); in assay [10] it was 23.2 µM (inactive); in assay [11] it was 69.5 µM (inactive); in assay [12] it was > 100 µM (inactive). Moreover, the GI50 in assay [13] was 17.5 µM (inactive); in assay [14], > 100 µM (inactive); in assay [15], 41.7 µM (inactive); in assay [16], 21.8 µM (inactive); in [17], 17.3 µM (inactive); in assay [18], > 100 µM (inactive). The GI50 in assay [19] was 28.5 µM (inactive).

Take `OC1(c2ccccc2)CSC2=Nc3ccccc3C3CCN1N23` (stereo not drawn): the GI50 in [1] is 23.1 µM (inactive); in assay [2], 3.89 µM (inactive); in assay [3], 29.3 µM (inactive); in assay [4], 17.6 µM; in assay [5], 21.9 µM (inactive); in assay [6], 30.5 µM (inactive). Moreover, the GI50 in [7] was 22.4 µM (inactive); in [8] it was 38.1 µM (inactive); in assay [9], 27.7 µM (inactive); in [10], 18.5 µM (inactive); in assay [11], 21.7 µM (inactive); in [12], 16.9 µM (inactive). For the same molecule, the GI50 in assay [13] is 4.16 µM (inactive); in assay [14], 17.7 µM (inactive); in assay [15], 3.75 µM (inactive); in assay [16], 20 µM (inactive); in [17] it was 16.6 µM (inactive); in assay [18], 14.9 µM (inactive). The GI50 in assay [19] is 18.7 µM (inactive).

For the molecule `C[C@H]1[C@H](C)CC[C@]2(C(=O)OC3OC(CO)C(O)C(O)C3O)CC[C@]3(C)C(=CC[C@@H]4[C@@]5(C)C[C@@H](O)[C@@H]6OC(=O)c7cc(O)c(O)c(O)c7-c7c(cc(O)c(O)c7O)C(=O)OC[C@]6(CO)[C@@H]5CC[C@]43C)[C@H]12` (stereo partly drawn), the GI50 in assay [1] was > 100 µM (inactive); in assay [2], 36.7 µM (inactive); in assay [3], 41.2 µM (inactive); in assay [4] it was 28.1 µM; in assay [5] it was 97.9 µM (inactive); in [6], 17.7 µM (inactive). The GI50 in [7] was > 100 µM (inactive); in assay [8] it was 67.8 µM (inactive); in [9], 46.8 µM (inactive); in assay [10], > 62.4 µM (inactive); in assay [11], > 83.4 µM (inactive); in assay [12] it was > 100 µM (inactive). The GI50 was > 100 µM (inactive) in assay [13]; 39.8 µM (inactive) in assay [14]; > 88.5 µM (inactive) in assay [15]; 17.3 µM (inactive) in assay [16]; 42.7 µM (inactive) in [17]; 16.4 µM (inactive) in [18]. The GI50 in assay [19] was 70.6 µM (inactive).

With `CCOC(=O)C1=CN(C(=O)c2ccccc2)CCC1Cc1ccccc1` (stereo not drawn), the GI50 was 25.8 µM (inactive) in assay [1]; 24 µM (inactive) in [2]; 23.1 µM (inactive) in assay [3]; 21.3 µM in [4]; 18.6 µM (inactive) in [5]; 13.5 µM (inactive) in assay [6]. The GI50 was 25.4 µM (inactive) in [7]; 43.6 µM (inactive) in assay [8]; 29 µM (inactive) in [9]; 20 µM (inactive) in assay [10]; 32.9 µM (inactive) in [11]; 21.5 µM (inactive) in assay [12]. Also, the GI50 in assay [13] is 22.9 µM (inactive); in [14], 15 µM (inactive); in assay [15], 18.2 µM (inactive); in [16], 12.5 µM (inactive); in assay [17] it was 12.5 µM (inactive); in [18], 21.1 µM (inactive). For the same molecule, the GI50 in assay [19] is 13.7 µM (inactive).
